Assay: solvent given as SMILES
Conditions: in CN(C)C=O

SMILES	emission maximum [nm]
CC1(C)Oc2c(c3nc4ccccc4nc3c3ccccc23)CC1Br (stereo not given)	458.3
COc1cc(/C=C/c2cc[n+](Cc3ccc(Br)cc3)cc2)ccc1O	565
COC(=O)c1cc(=O)n(C)c2cc(-c3cc4c5c(c3)CCCN5CCC4)sc12	509
CCCCN1\C(=C/C=C/C=C/C2=[N+](CCCC)c3ccc4ccccc4c3C2(C)C)C(C)(C)c2c1ccc1ccccc21	705

Same assay, conditions: in CN(C)P(=O)(N(C)C)N(C)C

SMILES	emission maximum [nm]
COc1cc(/C=C/c2cc[n+](Cc3ccc(Br)cc3)cc2)ccc1O	567

Same assay, conditions: in CO

SMILES	emission maximum [nm]
CCCCN1C(=O)C(=C/C=C/C=C/C=C2N(CCCC)c3ccccc3N2CCCC)C(=O)N(CCCC)C1=S	682
COc1cc(C=O)cc(-c2[nH]c(=O)n3c2-c2ccccc2C3=O)c1O	490
O=[N+]([O-])c1ccc(S(=O)(=O)Nc2ccc(C#Cc3ccc4ccc5ccc(C#Cc6ccc(NS(=O)(=O)c7ccc([N+](=O)[O-])cc7[N+](=O)[O-])cc6)c6ccc3c4c56)cc2)c([N+](=O)[O-])c1	539
Cc1ccc(C2=C3C=CC(c4ccccc4)=[N+]3[B-](F)(F)n3c2ccc3-c2ccccc2)cc1	582
C(/C=C/C1=[NH+]c2cccc3cccc1c23)=c1/[nH]c2cccc3cccc1c32	651
CC1=[N+]2C(=C(c3ccc(N4CCOCC4)cc3)c3ccc(C)n3[B-]2(F)F)C=C1	521
CC1(C)Oc2c(c3nc4ccccc4nc3c3ccccc23)CC1Br (stereo not given)	475.96
COc1cc(/C=C/c2cc[n+](Cc3ccc(Br)cc3)cc2)ccc1O	566
O=C1C=Cc2cc3ccccc3c(=O)n21	450
COC(=O)c1cc(=O)n(C)c2cc(-c3cc4c5c(c3)CCCN5CCC4)sc12	493
CCN(CC)c1ccc2c(c1)OC1=C(/C=C/C3=[N+](C)c4ccc5ccccc5c4C3(C)C)CCCC1=C2c1ccccc1C(=O)O	753
CCCCN1\C(=C/C=C/C=C/C2=[N+](CCCC)c3ccc4ccccc4c3C2(C)C)C(C)(C)c2c1ccc1ccccc21	701

Same assay, conditions: in CS(C)=O

SMILES	emission maximum [nm]
Cc1ccc(-c2cc3ccccc3oc2=O)cc1	409
COc1cc(/C=C/c2cc[n+](Cc3ccc(Br)cc3)cc2)ccc1O	568
O=C1C=Cc2cc3ccccc3c(=O)n21	420
COC(=O)c1cc(=O)n(C)c2cc(-c3cc4c5c(c3)CCCN5CCC4)sc12	508
CCCCN1\C(=C/C=C/C=C/C2=[N+](CCCC)c3ccc4ccccc4c3C2(C)C)C(C)(C)c2c1ccc1ccccc21	709

Same assay, conditions: in Cc1ccccc1

SMILES	emission maximum [nm]
CCCCCCCCn1nnc(-c2ccc(C#Cc3ccc(C#Cc4ccc(-c5nnn(CCCCCCCC)n5)cc4)c4nc5c6ccccc6c6ccccc6c5nc34)cc2)n1	488
CCCCN1C(=O)C(=C/C=C/C=C/C=C2N(CCCC)c3ccccc3N2CCCC)C(=O)N(CCCC)C1=S	715
CC1(C)c2ccccc2N(c2ccc(-c3nnc(-c4cc(-c5ccccc5)c(-c5ccccc5)c(-c5ccccc5)c4-c4ccccc4)o3)cc2)c2ccccc21	445
COc1ccc2c(c1)c1cc(OC)ccc1n2-c1cccc(-n2c3ccc(OC)cc3c3cc(OC)ccc32)c1C#N	460
CC1(C)c2ccccc2N(c2cccc(S(=O)(=O)c3cccc(N4c5ccccc5C(C)(C)c5ccccc54)c3)c2)c2ccccc21	489
Cc1ccc(C2=C3C=CC(c4ccccc4)=[N+]3[B-](F)(F)n3c2ccc3-c2ccccc2)cc1	589
O=Cc1ccc2nc(C#Cc3ccc(N(c4ccccc4)c4ccccc4)cc3)sc2c1	473
CC1=[N+]2C(=C(c3ccc(N4CCOCC4)cc3)c3ccc(C)n3[B-]2(F)F)C=C1	524
COC(=O)c1cc(=O)n(C)c2cc(-c3cc4c5c(c3)CCCN5CCC4)sc12	529
Cc1cc(C)c(C2=C3C=c4c(c5ccc(C(C)(C)C)cc5c5cc(C(C)(C)C)ccc45)=[N+]3[B-](F)(F)n3c2cc2c4ccc(C(C)(C)C)cc4c4cc(C(C)(C)C)ccc4c23)c(C)c1	715
Fc1c(F)c(-n2c3ccccc3c3ccccc32)c(F)c(-n2c3ccccc3c3ccccc32)c1-c1nnc(-c2ccccc2)o1	449
O=C1c2ccccc2C2=Cc3cccc[n+]3[B-](F)(F)N12	459

Same assay, conditions: in ClC(Cl)Cl

SMILES	emission maximum [nm]
CCCCN1C(=O)C(=C/C=C/C=C/C=C2N(CCCC)c3ccccc3N2CCCC)C(=O)N(CCCC)C1=S	702
CC(C)(C)c1ccc2oc3nc4oc5ccc(-n6c7ccccc7c(=O)c7ccccc76)cc5c4cc3c2c1	409
CC1(C)c2ccccc2N(c2cccc(S(=O)(=O)c3cccc(N4c5ccccc5C(C)(C)c5ccccc54)c3)c2)c2ccccc21	515
Cc1ccc(C2=C3C=CC(c4ccccc4)=[N+]3[B-](F)(F)n3c2ccc3-c2ccccc2)cc1	588
CC1=[N+]2C(=C(c3ccc(N4CCOCC4)cc3)c3ccc(C)n3[B-]2(F)F)C=C1	531
O=C1C=Cc2cc3ccccc3c(=O)n21	410
COC(=O)c1cc(=O)n(C)c2cc(-c3cc4c5c(c3)CCCN5CCC4)sc12	580
CCN(CC)c1ccc2c(c1)OC1=C(/C=C/C3=[N+](C)c4ccc5ccccc5c4C3(C)C)CCCC1=C2c1ccccc1C(=O)O	761
F[B-]1(F)n2c(cc(Br)c2Br)C(c2ccccc2)=C2C=C(Br)C(Br)=[N+]21	570

Same assay, conditions: in ClCCl

emission maximum [nm]	SMILES
490	c1ccc(-c2nc(-c3ccc(N4c5ccccc5Sc5ccccc54)cc3)nn2-c2ccc(N3c4ccccc4Sc4ccccc43)cc2)nc1
467	COc1cc(C=O)cc(-c2[nH]c(=O)n3c2-c2ccccc2C3=O)c1O
419	c1cc(-c2c3ccccc3c(-c3ccc4ccccc4c3)c3ccccc23)cc(-n2c3ccccc3c3ccccc32)c1
403	COc1cc2c(cc1OC)C1=C[C@H](c3ccccc3)C3(C(C#N)=C(C#N)N1CC2)c1cc(Br)ccc1-c1ccc(Br)cc13
754	COc1ccc2cc(C3=[N+]4C(=Nc5c(-c6ccc7ccccc7c6)cc(-c6ccc7cc(OC)ccc7c6)n5[B-]4(F)F)C(c4ccc5ccccc5c4)=C3)ccc2c1
388	CCCCC(CC)COc1cc(OCC(CC)CCCC)c2c#cc3ccc4c(c3)c3cc(c#cc5cc(c#cc6ccc7c(c6)c6cc(c#cc1c2)ccc6n7CC(CC)CCCC)c(C(CCCC)OCCC)cc5C(CCCC)OCCC)ccc3n4CC(CC)CCCC (stereo not given)
360	c1ccc(-c2ccc(-c3cc(-c4ccccn4)nc(-c4ccccn4)c3)cc2)cc1
417	COc1cc(-c2ncc(-c3ccncc3)o2)cc(OC)c1OC
413	CC(C)(C)NC(=O)c1ccc(-c2ccccc2)c2ccc3c4ccccc4c4ccccc4c3c12
372	c1ccc2c(c1)-c1cc(-n3c4ccccc4c4ccccc43)ccc1C21c2ccccc2-n2c3ccccc3c3cccc1c32 (stereo not given)
521	Cc1ccc2nc3cc4ccccc4cc3c(-c3ccccc3)c2c1
417	Cc1ccc(-c2cc(C)[o+]c(C)c2)cc1
521	COc1cc(/C=C/c2nc(N3CCOCC3)c3c([n+]2[O-])CCCC3)cc(OC)c1OC

SMILES	emission maximum [nm]
CCCCCCCCn1nnc(-c2ccc(C#Cc3ccc(C#Cc4ccc(-c5nnn(CCCCCCCC)n5)cc4)c4nc5c6ccccc6c6ccccc6c5nc34)cc2)n1	502
CCCCN1C(=O)C(=C/C=C/C=C/C=C2N(CCCC)c3ccccc3N2CCCC)C(=O)N(CCCC)C1=S	697
COC(=O)c1cc(=O)n(C)c2cc(-c3cc4c5c(c3)CCCN5CCC4)sc12	605
Cc1cc(C)c(C2=C3C=c4c(c5ccc(C(C)(C)C)cc5c5cc(C(C)(C)C)ccc45)=[N+]3[B-](F)(F)n3c2cc2c4ccc(C(C)(C)C)cc4c4cc(C(C)(C)C)ccc4c23)c(C)c1	715
CCCCN1\C(=C/C=C/C=C/C2=[N+](CCCC)c3ccc4ccccc4c3C2(C)C)C(C)(C)c2c1ccc1ccccc21	713
O=C1c2ccccc2C2=Cc3cccc[n+]3[B-](F)(F)N12	454

Same assay, conditions: in O

emission maximum [nm]	SMILES
367	CC(C)(C)c1cccc2c(O)cccc12
555	CCN(CC)c1ccc2cc3ccc(=[N+](CC)CC)cc-3oc2c1

SMILES	emission maximum [nm]
CC[N+]1(CC)CN2C(=N1)C(C(=O)O)=Cc1ccccc12	462

Same assay, conditions: in O=P(c1ccccc1)(c1ccccc1)c1ccccc1Oc1ccccc1P(=O)(c1ccccc1)c1ccccc1

SMILES	emission maximum [nm]
COc1ccc2c(c1)c1cc(OC)ccc1n2-c1cccc(-n2c3ccc(OC)cc3c3cc(OC)ccc32)c1C#N	462

Same assay, conditions: in OCC(F)(F)F

SMILES	emission maximum [nm]
CCCCN1C(=O)C(=C/C=C/C=C/C=C2N(CCCC)c3ccccc3N2CCCC)C(=O)N(CCCC)C1=S	663

Same assay, conditions: in c1cc(-n2c3ccccc3c3ccccc32)cc(-n2c3ccccc3c3ccccc32)c1

SMILES	emission maximum [nm]
CC1(C)c2ccccc2N(c2cccc(S(=O)(=O)c3cccc(N4c5ccccc5C(C)(C)c5ccccc54)c3)c2)c2ccccc21	505.12

Same assay, conditions: in c1ccc(-n2c(-c3c(-n4c5ccccc5c5ccccc54)cccc3-n3c4ccccc4c4ccccc43)nc3ccccc32)cc1

SMILES	emission maximum [nm]
CC1(C)c2ccccc2N(c2ccc(-c3nnc(-c4cc(-c5ccccc5)c(-c5ccccc5)c(-c5ccccc5)c4-c4ccccc4)o3)cc2)c2ccccc21	453

Same assay, conditions: in c1ccccc1

emission maximum [nm]	SMILES
444.25	CC1(C)Oc2c(c3nc4ccccc4nc3c3ccccc23)CC1Br (stereo not given)
